In PubChem BioAssay AID248 (DTP/NCI, 2004):
Several values for one entry are separate records, joined by “and”; a condition that tells them apart may be missing. Equal values may be shown once. Toxic doses and inconclusive results are not listed. Cut-off read from the data, not from the text of the source: active = T/C of 150% or more; inactive = T/C below 125%.

Tested on: L1210 leukemia ip in BDF1 mice, survival T/C
Test: NCI In Vivo Anticancer Drug Screen. Data for tumor model L1210 Leukemia (intraperitoneal) in B6D2F1 (BDF1) mice
Details: endpoint: mean survival time, higher = longer survival
In short: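 Read-out is survival time, reported as the treated-group measurement over the vehicle-control measurement.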

[1] = dose: 100.0 mg/kg/injection, schedule: Q04DX002 (ip), vehicle: saline with Tween-80
[2] = dose: 200.0 mg/kg/injection, schedule: Q04DX002 (ip), vehicle: saline with Tween-80
[3] = dose: 100.0 mg/kg/injection, schedule: Q01DX001 (ip), vehicle: saline
[4] = dose: 200.0 mg/kg/injection, schedule: Q01DX001 (ip), vehicle: saline
[5] = dose: 400.0 mg/kg/injection, schedule: Q01DX001 (ip), vehicle: saline
[6] = dose: 100.0 mg/kg/injection, schedule: Q04DX003 (ip), vehicle: saline
[7] = dose: 200.0 mg/kg/injection, schedule: Q04DX003 (ip), vehicle: saline
[8] = dose: 400.0 mg/kg/injection, schedule: Q04DX003 (ip), vehicle: saline
[9] = dose: 100.0 mg/kg/injection, schedule: Q04DX003 (ip), vehicle: Klucel (hydroxypropylcellulose) (HPC)
[10] = dose: 200.0 mg/kg/injection, schedule: Q04DX003 (ip), vehicle: Klucel (hydroxypropylcellulose) (HPC)
[11] = dose: 100.0 mg/kg/injection, schedule: Q01DX009 (ip), vehicle: saline with Tween-80
[12] = dose: 200.0 mg/kg/injection, schedule: Q01DX009 (ip), vehicle: saline with Tween-80
[13] = dose: 400.0 mg/kg/injection, schedule: Q01DX009 (ip), vehicle: saline with Tween-80
[14] = dose: 400.0 mg/kg/injection, schedule: Q04DX003 (ip), vehicle: Klucel (hydroxypropylcellulose) (HPC)

Measured: T/C

Nc1ccc(S(=O)(=O)Nc2ccc(S(=O)(=O)O)c3ccc(S(=O)(=O)O)cc23)cc1
inactive: dose: 75.0 mg/kg/injection, schedule: Q04DX003 (ip), vehicle: Klucel (hydroxypropylcellulose) (HPC) 95 % of control | dose: 150.0 mg/kg/injection, schedule: Q04DX003 (ip), vehicle: Klucel (hydroxypropylcellulose) (HPC) 93 % of control | dose: 300.0 mg/kg/injection, schedule: Q04DX003 (ip), vehicle: Klucel (hydroxypropylcellulose) (HPC) 98 % of control

CC(=O)Oc1cccc2cc3cc(C)cc(OC(C)=O)c3c(OC(C)=O)c12
inactive: dose: 0.5 mg/kg/injection, schedule: Q01DX001 (ip), vehicle: saline 106 % of control | dose: 1.0 mg/kg/injection, schedule: Q01DX001 (ip), vehicle: saline 104 % of control | dose: 2.0 mg/kg/injection, schedule: Q01DX001 (ip), vehicle: saline 108 % of control | dose: 4.0 mg/kg/injection, schedule: Q01DX001 (ip), vehicle: saline 110 % of control | dose: 5.0 mg/kg/injection, schedule: Q01DX001 (ip), vehicle: saline 108 % of control | dose: 8.0 mg/kg/injection, schedule: Q01DX001 (ip), vehicle: saline 116 % of control

Cc1ccccc1NC(=S)NCCC(=O)O
inactive: [1] 105 % of control | [2] 97 % of control | dose: 400.0 mg/kg/injection, schedule: Q04DX002 (ip), vehicle: saline with Tween-80 97 % of control

C1CCC2C(C1)C2(N1CCCC1)N1CCCC1 (centres undefined)
inactive: dose: 6.25 mg/kg/injection, schedule: Q01DX009 (ip), vehicle: Klucel (hydroxypropylcellulose) (HPC) 101 % of control | dose: 12.5 mg/kg/injection, schedule: Q01DX009 (ip), vehicle: Klucel (hydroxypropylcellulose) (HPC) 100 % of control | dose: 12.5 mg/kg/injection, schedule: Q04DX003 (ip), vehicle: Klucel (hydroxypropylcellulose) (HPC) 98 % of control | dose: 25.0 mg/kg/injection, schedule: Q01DX009 (ip), vehicle: Klucel (hydroxypropylcellulose) (HPC) 93 % of control and 92 % of control | dose: 25.0 mg/kg/injection, schedule: Q04DX003 (ip), vehicle: Klucel (hydroxypropylcellulose) (HPC) 98 % of control | dose: 50.0 mg/kg/injection, schedule: Q04DX003 (ip), vehicle: Klucel (hydroxypropylcellulose) (HPC) 94 % of control

O=[N+]([O-])c1ccc(O)c(N=Cc2ccccc2)c1
inactive: [3] 97 % of control | [4] 96 % of control | [5] 100 % of control

O=C(O)CCCN1C/C(=C\c2ccccc2)C(=O)C1=O
inactive: [6] 104 % of control | [7] 101 % of control | [8] 98 % of control

Nc1nc(N)c(-c2ccc(Cl)c(Cl)c2)c(COc2cccc(CNC(=O)c3cccc(S(=O)(=O)F)c3)c2)n1
inactive: dose: 25.0 mg/kg/injection, schedule: Q01DX009 (ip), vehicle: saline 110 % of control | dose: 50.0 mg/kg/injection, schedule: Q01DX009 (ip), vehicle: saline 102 % of control | dose: 100.0 mg/kg/injection, schedule: Q01DX009 (ip), vehicle: saline 98 % of control | dose: 200.0 mg/kg/injection, schedule: Q01DX009 (ip), vehicle: saline 102 % of control | dose: 400.0 mg/kg/injection, schedule: Q01DX009 (ip), vehicle: saline 105 % of control

N#Cc1ccc(S(N)(=O)=O)cc1
inactive: [3] 100 % of control | dose: 100.0 mg/kg/injection, schedule: Q01DX009 (ip), vehicle: acetone 98 % of control | dose: 100.0 mg/kg/injection, schedule: Q04DX003 (ip), vehicle: acetone 96 % of control | [4] 94 % of control | dose: 200.0 mg/kg/injection, schedule: Q04DX003 (ip), vehicle: acetone 94 % of control | [5] 120 % of control | dose: 400.0 mg/kg/injection, schedule: Q04DX003 (ip), vehicle: acetone 100 % of control

Nc1ccc2cn[nH]c2c1
inactive: dose: 50.0 mg/kg/injection, schedule: Q04DX002 (ip), vehicle: saline with Tween-80 100 % of control | dose: 100.0 mg/kg/injection, schedule: Q01DX009 (ip), vehicle: water 104 % of control | [1] 100 % of control | dose: 100.0 mg/kg/injection, schedule: Q04DX003 (ip), vehicle: water 96 % of control | dose: 200.0 mg/kg/injection, schedule: Q01DX009 (ip), vehicle: water 111 % of control | [2] 106 % of control | dose: 200.0 mg/kg/injection, schedule: Q04DX003 (ip), vehicle: water 94 % of control | dose: 400.0 mg/kg/injection, schedule: Q04DX003 (ip), vehicle: water 100 % of control

COc1ccc(Nc2cc(N)nc(N)n2)cc1
inactive: dose: 25.0 mg/kg/injection, schedule: Q01DX Z (ip), vehicle: methylcellulose (MC) 93 % of control | dose: 50.0 mg/kg/injection, schedule: Q01DX Z (ip), vehicle: methylcellulose (MC) 87 % of control

OC(CCl)CNc1ccc(-c2ccccc2)cc1 (centres undefined)
inactive: dose: 100.0 mg/kg/injection, schedule: Q01DX001 (ip), vehicle: other 94 % of control | [9] 100 % of control | dose: 200.0 mg/kg/injection, schedule: Q01DX001 (ip), vehicle: other 92 % of control | [10] 86 % of control | dose: 400.0 mg/kg/injection, schedule: Q01DX001 (ip), vehicle: other 97 % of control

Clc1cccc(Nc2nc(Cl)nc(C(Cl)(Cl)Cl)c2Cl)c1
inactive: [11] 88 % of control | [12] 94 % of control | [13] 88 % of control

O=C(c1ccccc1)C1(c2ccccc2)CCP(c2ccccc2)(c2ccccc2)(c2ccccc2)O1 (centres undefined)
inactive: dose: 15.0 mg/kg/injection, schedule: Q01DX001 (ip), vehicle: carboxymethylcellulose (CMC) 93 % of control | dose: 30.0 mg/kg/injection, schedule: Q01DX001 (ip), vehicle: carboxymethylcellulose (CMC) 95 % of control | dose: 60.0 mg/kg/injection, schedule: Q01DX001 (ip), vehicle: carboxymethylcellulose (CMC) 96 % of control

CC1(C)COC(C2CC(=O)c3ccccc3C2)=N1 (centres undefined)
inactive: dose: 50.0 mg/kg/injection, schedule: Q01DX009 (ip), vehicle: saline with Tween-80 94 % of control | dose: 50.0 mg/kg/injection, schedule: Q04DX003 (ip), vehicle: saline 97 % of control | [11] 107 % of control | [6] 92 % of control | [12] 100 % of control | [7] 99 % of control | [13] 107 % of control | [8] 91 % of control

NC(N)=Nc1ccccc1 (tested in a mixture with another compound)
inactive: [6] 100 % of control | [7] 100 % of control

CN(C)c1cc(Br)c(C=O)cc1[N+](=O)[O-]
inactive: dose: 100.0 mg/kg/injection, schedule: Q01DX009 (ip), vehicle: Klucel (hydroxypropylcellulose) (HPC) 94 % of control | [9] 102 % of control | dose: 200.0 mg/kg/injection, schedule: Q01DX009 (ip), vehicle: Klucel (hydroxypropylcellulose) (HPC) 103 % of control | [10] 93 % of control | dose: 400.0 mg/kg/injection, schedule: Q01DX009 (ip), vehicle: Klucel (hydroxypropylcellulose) (HPC) 92 % of control | [14] 98 % of control

Oc1ccccc1C=NCc1ccccc1
inactive: [9] 100 % of control | [10] 92 % of control | [14] 96 % of control

CC(C)C1=CC23CCC4C(C)(C(=O)O)CCCC4(C)C2CC13 (centres undefined)
inactive: [11] 88 % of control | [12] 90 % of control | [13] 91 % of control

Nc1ncnc2c1cnn2C1OC(CO)C(O)C1O (centres undefined)
inactive: dose: 4.1 mg/kg/injection, schedule: Q01DX009 (ip), vehicle: carboxymethylcellulose (CMC) 97 % of control | dose: 6.2 mg/kg/injection, schedule: Q01DX009 (ip), vehicle: carboxymethylcellulose (CMC) 111 % of control | dose: 9.3 mg/kg/injection, schedule: Q01DX009 (ip), vehicle: carboxymethylcellulose (CMC) 124 % of control | dose: 67.5 mg/kg/injection, schedule: Q01DX015 (ip), vehicle: carboxymethylcellulose (CMC) 122 % of control | dose: 100.0 mg/kg/injection, schedule: Q01DX001 (ip), vehicle: carboxymethylcellulose (CMC) 111 % of control
